Reference: publication PMC4349624, “In vitro synergistic effect of fluoroquinolone analogues in combination with artemisinin against Plasmodium falciparum; their antiplasmodial action in rodent malaria model” (Malaria Journal, 2015)
Values after ≈ are worked out from the molar mass of the structure shown. Values joined by “and” are separate entries in the source; they are usually repeats but may differ in a detail not shown here. Equal values may be shown once. “Also recorded” adds a separate entry of the source. Read-outs that look alike come from different tables or passages of the source.

Tests used:
[1] = test system: Plasmodium falciparum 3D7 strain; experiment: antiplasmodial interaction assay, fixed-ratio combination isobologram method with artemisinin; type: cell-based; conditions: for Mean ƩFIC ± SD: combination with artemisinin, over the fixed-ratio combinations; for antiplasmodial interaction with artemisinin (in words): four fixed-ratio combinations, in vitro; for Drug B Mean FIC50 ± SE: n = 3
Protocol: Stock culture of malaria parasite P. falciparum 3D7 strain (chloroquine sensitive) was continuously maintained in vitro using a CO2 incubator under low-oxygen concentration (3%) and high carbon dioxide atmosphere (4%) along with nitrogen (93%), incubated at a temperature of 37°C. The parasites were maintained on O^+ human red blood cells suspended in a complete culture medium. Each litre of RPMI-1640 aqueous culture medium was prepared with 10.4 g of powdered RPMI-1640 (with glutamine but without sodium bicarbonate), 5.94 g of HEPES buffer, 1 g of dextrose and 40 mg of gentamicin. Complete medium was constituted just before use by adding sterile 5% sodium bicarbonate at the rate of 4 ml per 96 ml, and supplemented with 10% (v/v) pooled O^+ human serum. Infected erythrocytes were suspended in this culture media initiated at a haematocrit value of 5% and parasitemia was kept between 2 and 4% with sub-culturing done beyond 5%. Medium was changed once a day and percentage parasitemia was monitored using Giemsa stained slides.
Artemisinin (Sigma Aldrich, USA) was prepared in DMSO to get the stock solution of 1 mg/ml strength. Compounds 10, 12 and 18 were synthesized according to the procedure described by Dixit et al. and each compound was made to strength of 1 mg/ml stock solution in DMSO. The stock solutions were diluted on the day of experiment to get the desired concentrations for each compound. The highest amount of DMSO in diluted concentrations was 0.125%, and had no effect on parasite growth.
In each combination assay, two compounds (Compound A, artemisinin and Compound B, a fluoroquinolone derivative or norfloxacin) were combined in four fixed ratios (4:1, 3:2, 2:3, and 1:4).
Compound dilutions of each combination solution were made in sterile, flat-bottomed, 96-well tissue culture plates as described by Fivelman et al.. Six times two-fold serial dilution was done for each combination in triplicate. Each well contained a total volume of 200 μl of complete culture medium with or without compound and pre-synchronized infected red blood cells (1% parasitemia at 2.5% haematocrit). Control cultures (without compound) were maintained on the same plate in triplicate. Two 96-well plates (for six combinations) were used for each combination experiment. The plates were stacked in a CO2 incubator and incubated at 37°C for 48 hours.
After 48-hour incubation, thin blood smear slides were prepared, air dried, methanol fixed, and stained in Giemsa solution for 40 min. After staining, slides were removed from coupling jar, washed in running tap water and air dried. The Giemsa-stained slides were examined for counting the number of parasites in random adjacent microscopic fields, equivalent to about 4,000 erythrocytes at 1,000 × magnification. Per cent parasitemia was calculated. Reproducibility of counts was checked by two other readers to maintain the quality control.
For each combination assay, IC50 was calculated from two sets of concentration response graphs, each containing compound alone curve and four combination curves.
ƩFIC <1 represents synergism, ƩFIC > = 1 and <2 represents additive interaction, ƩFIC > = 2 and <4 represents slight antagonism while ƩFIC > = 4 represents marked antagonism.

[2] = test system: 3D7 strain of P. falciparum; conditions: cited from earlier work
[3] = test system: BALB/c mice; experiment: LD50 test; type: in vivo; conditions: ip
Protocol: Therapeutic Index (TI) values were determined by the formula: TherapeuticIndexTI=MedianlethaldoseLD50/MedianeffectivedoseED50

[4] = test system: host cell; design: method as in PMID 22424611; conditions: read-out: in vitro host cell cytotoxicity IC50; cited from earlier work
[5] = test system: Plasmodium berghei ANKA; experiment: Peters' four-day suppressive test in BALB/c mice; type: in vivo; conditions: ip, once daily days 0 to 3, BALB/c mice; n = 5
From the text: Evaluation of the curative potential of the fluoroquinolone derivatives was done using the method described by Ryley and Peters, 1970 (rodent malaria four-day suppressive test; Peters’ four-day suppressive test). Rodent malaria parasite Plasmodium berghei ANKA was used.
[…] BALB/c inbred albino mice (25–30 g) of the male sex were obtained from the Animal Facility Centre of the Department of Zoology, University of Delhi. The animals were fed ad libitum with standard feed and had free access to water. They were maintained under standard conditions of humidity, temperature (25°C) and 12 hours light/darkness cycles. The animals were acclimatized for two weeks before the commencement of the study and were ensured to exclude all zoonotic agents.
Day 0: Heparinized blood was withdrawn from an infected donor mouse with approximately 25-30% parasitemia, and diluted in 1x PBS to 10^8 parasitized erythrocytes per mL. An aliquot of 0.2 mL (=2 × 10^7 parasitized erythrocytes) of this suspension was injected intraperitoneally (ip) into experimental groups of five mice each. One to three hours post-infection, the experimental groups were treated with varying doses of each of the test compounds (0.5, 1, 10, 25 mg/kg BW) by the ip route. Each compound was made to strength of 5 mg/ml stock solution in 10% DMSO and administered according to desired concentration and individual body weight. Artemisinin was given to the standard drug group and 0.2 mL of normal saline to the negative control group.
Day 1, 2 and 3: 24 hours, 48 hours and 72 hours post-infection, the experimental groups of mice were treated again with the same dose and by the same route as on day 0.
Day 4: 24 hours after the last treatment (i.e., 96 hours post-infection), blood was drawn from the tail region of mice and smears were prepared. […] Differences in parasitemia percentage between treated groups and untreated animals were analysed by a one-way ANOVA test using IBM SPSS Statistics 16.0 and differences considered significant if P < 0.05. […] Percentinhibitionactivity=100–Meanparasitemia/control×100
Untreated control mice typically died approximately one week after infection. […] The mean survival time was calculated in comparison to untreated (Normal saline) and standard drug (artemisinin) treated groups. Differences in survival time between treated groups and untreated animals were analysed by Log-rank (Mantel-Cox) test using GraphPad Prism 5 and differences considered significant if P <0.005. Observations concerning adverse effects due to the compounds were recorded.

[6] = artemisinin (A) : drug B ratio 1:4
[7] = artemisinin (A) : drug B ratio 2:3
[8] = artemisinin (A) : drug B ratio 3:2
[9] = artemisinin (A) : drug B ratio 4:1
[10] = ratio A:B 1:4, combined with artemisinin (drug A)
[11] = ratio A:B 2:3, combined with artemisinin (drug A)
[12] = ratio A:B 3:2, combined with artemisinin (drug A)
[13] = ratio A:B 4:1, combined with artemisinin (drug A)
[14] = fluoroquinolones in clinical use, reported values, read-out: reported IC50 against 3D7 strain of P. falciparum in vitro
[15] = P. falciparum 3D7, in vitro, read-out: IC50 (equivalent in μM)

Structure (SMILES)	interaction (class from Σ FICs) [1, 6]	Σ FICs [1, 6]	interaction (class from Σ FICs) [1, 7]	Σ FICs [1, 7]	interaction (class from Σ FICs) [1, 8]	Σ FICs [1, 8]	interaction (class from Σ FICs) [1, 9]	Σ FICs [1, 9]	antiplasmodial interaction with artemisinin (in words) [1]	Drug B Mean FIC50 ± SE ([1]; ratio A:B 0:5, drug B alone)	Drug B Mean FIC50 ± SE [1, 10]	Drug B Mean FIC50 ± SE [1, 11]	Drug B Mean FIC50 ± SE [1, 12]	Drug B Mean FIC50 ± SE [1, 13]	IC50 [2, 14] [µM]	Therapeutic Index (TI) = LD50/ED50 [3]	IC50 [4] [µM]	Mean ED50 ± SE [5]	IC50 (inhibited the parasite multiplication rate to 50%) ± SE ([2]; P. falciparum 3D7, in vitro) [µg/mL]	IC50 [2, 15] [µM]	also measured
CCn1cc(C(=O)O)c(=O)c2cc(F)c(N3CCNCC3)cc21 [Norfloxacin, norfloxacin, reference compound]	SYN (ƩFIC <1 represents synergism)	0.74	ADD (ƩFIC > = 1 and <2 represents additive interaction)	1.53	SYN (ƩFIC <1 represents synergism)	0.81	ADD (ƩFIC > = 1 and <2 represents additive interaction)	1.36	synergistic interaction in two combinations, while additive in the remaining two	0.98 ± 0.04	0.60 ± 0.02	0.87 ± 0.03	0.52 ± 0.04	0.45 ± 0.02	53.9	–	–	–	–	–	Mean ƩFIC ± SD [1]: 1.11 ± 0.394
NC1CCN(c2c(F)cc3c(=O)c(C(=O)O)cn(C4CC4)c3c2Cl)C1 (stereo not drawn) [clinafloxacin, reference compound]	–	–	–	–	–	–	–	–	–	–	–	–	–	–	37.5	–	–	–	–	–	–
CC1COc2c(N3CCN(C)CC3)c(F)cc3c(=O)c(C(=O)O)cn1c23 (stereo not drawn) [ofloxacin, reference compound]	–	–	–	–	–	–	–	–	–	–	–	–	–	–	152	–	–	–	–	–	–
CCOC(=O)c1cn(Cc2c[nH]nn2)c2cc(Cl)c(F)cc2c1=O [Compound 12]	SYN (ƩFIC <1 represents synergism)	0.56	ADD (ƩFIC > = 1 and <2 represents additive interaction)	1.27	SYN (ƩFIC <1 represents synergism)	0.83	SYN (ƩFIC <1 represents synergism)	0.78	highly synergistic interactions	1.11 ± 0.08	0.32 ± 0.01	0.77 ± 0.03	0.23 ± 0.02	0.15 ± 0.003	–	258.90	171	3.09 mg/kg BW and 3.09 ± 0.22 mg/kg BW	1.33 ± 0.67 (≈ 3.79 µM)	3.79	antiplasmodial interaction with artemisinin (in words) ([1]; listed as compound 12): synergistic interaction in three combinations and additive in one
CCn1cc(C(=O)O)c(=O)c2cc(F)c(N3CCNCC3)nc21 [enoxacin, reference compound]	–	–	–	–	–	–	–	–	–	–	–	–	–	–	121	–	–	–	–	–	–
CCOC(=O)c1cn(CC#N)c2cc(Cl)c(F)cc2c1=O [Compound 10]	SYN (ƩFIC <1 represents synergism)	0.58	ADD (ƩFIC > = 1 and <2 represents additive interaction)	1.01	SYN (ƩFIC <1 represents synergism)	0.80	SYN (ƩFIC <1 represents synergism)	0.76	highly synergistic interactions; also recorded: synergistic antiplasmodial interaction in three of the four fixed-ratio combinations evaluated and additive in the remaining one	0.93 ± 0.04	0.41 ± 0.03	0.53 ± 0.03	0.22 ± 0.02	0.15 ± 0.02	–	346.32	143	2.31 mg/kg BW and 2.31 ± 0.19 mg/kg BW	2.56 ± 0.30 (≈ 8.29 µM)	8.69	Mean ƩFIC ± SD [1]: 0.788 ± 0.177
CCOC(=O)c1cn(Cc2cccc(Cl)c2)c2cc(Cl)c(F)cc2c1=O [Compound 18]	SYN (ƩFIC <1 represents synergism)	0.55	ADD (ƩFIC > = 1 and <2 represents additive interaction)	1.15	ADD (ƩFIC > = 1 and <2 represents additive interaction)	1.02	SYN (ƩFIC <1 represents synergism)	0.73	synergistic in two combinations, while additive in the other two	0.97 ± 0.08	0.33 ± 0.02	0.66 ± 0.03	0.47 ± 0.03	0.16 ± 0.01	–	307.69	129	2.60 mg/kg BW and 2.60 ± 0.18 mg/kg BW	2.73 ± 0.23 (≈ 6.92 µM)	6.93	–
